These results are taken from patent US5399487A, “6-peptidylamino-1-naphthalenesulfonamides useful as fluorogenic proteolytic enzyme substrates” (Haematologic Technologies, Inc., priority 1993, dated 1995).

What all share (assay type): biochemical
The target in test [1] is T1, factor VIIa (Homo sapiens, UniProt P08709).
T1 construct: directly measure the enzymatic activity of factor VIIa in the presence and absence of tissue factor and phospholipid
T1 sequence (P08709 213-466 limits assumed): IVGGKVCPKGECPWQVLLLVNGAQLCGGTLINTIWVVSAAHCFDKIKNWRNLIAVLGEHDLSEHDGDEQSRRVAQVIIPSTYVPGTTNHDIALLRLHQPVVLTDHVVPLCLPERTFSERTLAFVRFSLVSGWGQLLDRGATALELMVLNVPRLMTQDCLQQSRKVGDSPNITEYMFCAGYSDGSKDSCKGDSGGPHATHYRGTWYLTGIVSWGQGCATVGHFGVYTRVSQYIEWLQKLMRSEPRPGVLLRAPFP
T1 sequence (P08709 61-212 limits assumed): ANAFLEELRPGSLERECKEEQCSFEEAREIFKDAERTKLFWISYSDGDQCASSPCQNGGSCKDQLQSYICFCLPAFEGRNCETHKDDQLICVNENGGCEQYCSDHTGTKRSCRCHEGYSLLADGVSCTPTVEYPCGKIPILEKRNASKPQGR
As to the kind of experiment: Fluorogenic enzyme assay, relative hydrolysis rates (Table 8). Particulars: 10 nM enzyme, substrate 1 μM. How it is done:
Enzyme assays (except factor VIIa assays, see below) were conducted in 20 mM Tris, 150 mM NaCl, pH 7.4 (TBS) at room temperature (22° C.). The final volume for all reaction mixtures was 2.0 ml. Fluorogenic substrates were dissolved in DMSO to a stock concentration of 10 mM. The 10 mM stock solution was diluted in TBS to the final working concentration prior to all assays. Enzyme was added to mixtures containing buffer components and substrate and the initial rate of substrate hydrolysis was measured as the change in fluorescent intensity over time, corresponding to the generation of the particular 6-amino-1-naphthalenesulfonamide fluorophore from the provided substrate. Quantitation of substrate hydrolysis was accomplished by establishing a standard curve from the appropriate fluorescent moiety. Fluorescence was monitored (continuously or discontinuously) using a Perkin Elmer fluorescence spectrophotometer, model MPF-44A, equipped with a standard chart recorder. The fluorophore was detected using monochrometers set at an excitation wavelength of 352 nm and an emission wavelength of 470 nm. Light scattering artifacts were minimized using a 399 nm cut off filter in the emission light beam.
(§1) Factor VII assays were conducted in 20 mM HEPES, 150 mM NaCl, 5 mM CaCl2, pH 7.4 (HBS) at 37° C. The final volume for all reactions was 1.6 ml. 6-(Mes-D-Leu-Gly-Arg)amino-1-(N,N-diethyl)naphthalenesulfonamide was dissolved in DMSO to a stock concentration of 10 mM. This 10 mM stock solution of was diluted in HBS to final working concentration prior to all assays. For reactions involving tissue factor (TF) and phospholipid vesicles, recombinant human tissue factor was solubilized in either 0.04% n-dodecyl octaethylene glycol (C12 E8) or 0.8% octyl glucoside. The TF/n-dodecyl octaethylene glycol was then relipidated into PCPS or PC vesicles by a 30 minute incubation step as described by Lawson & Mann, J. Biol. Chem. 266: 11317-11327 (1991). TF/octyl glucoside was relipidated into PC or PCPS vesicles by a thirty minute incubation step followed by exhaustive dialysis. The final concentration of tissue factor used in the studies described here ranged from 2 to 50 nM depending on the nature of the experiment.
(§2) Fifteen minutes prior to the start of all reactions factor VIIa was added to the reaction system. This incubation period was followed by the addition of substrate (1 μM to 400 μM) to the mixture to start the reaction. In experiments designed to determine kinetic constants of substrate hydrolysis, 50 nM rVIIa was used when no tissue factor was present in the reaction system, while 0.5 nM rVIIa was used when tissue factor was present in the reaction system. The rate of substrate hydrolysis was measured by change in fluorescence over time, which corresponded with the generation of the 6-amino-1-(N,N-diethyl)naphthalenesulfonamide from the provided substrate. The kinetic constants of 6-(Mes-D-Leu-Gly-Arg)amino-1-(N,N-diethyl)naphthalenesulfonamide hydrolysis as a function of factor VIIa/tissue factor complex assembly are shown in Table 10.

For test [2], the target named is activated protein C (APC) (Homo sapiens, UniProt P04070). As to the kind of experiment: Fluorogenic enzyme assay (Example 5). More on the design: key to Kinetic constants, APC (symbol b): slow substrate hydrolysis, no kinetic constants calculated. An outline of the steps:
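Run in TBS (20 mM Tris, 150 mM NaCl, pH 7.4) at 22° C; initial rates of fluorogenic substrate hydrolysis followed by release of 6-amino-1-naphthalenesulfonamide fluorophore (ex 352 nm, em 470 nm), quantified against fluorophore standard curve. Km and kcat derived by non-linear fit to Michaelis-Menten equation.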

Test [3] concerns the target T2, VIIa/TF/PC/CA^2+ (Homo sapiens, UniProt P08709).
T2 construct: directly measure the enzymatic activity of factor VIIa in the presence and absence of tissue factor and phospholipid
As to the kind of experiment: Fluorogenic factor VIIa assay (Example 6). Particulars: HBS, 37° C., 0.5 nM rVIIa. The method, then: as §1, §2

For test [4], the target named is T3, VIIa/PCPS/Ca^2+ (Homo sapiens, UniProt P08709).
T3 construct: directly measure the enzymatic activity of factor VIIa in the presence and absence of tissue factor and phospholipid
T3 sequence (P08709 213-466 limits assumed): T1 sequence (P08709 213-466 limits assumed)
T3 sequence (P08709 61-212 limits assumed): T1 sequence (P08709 61-212 limits assumed)
Nature of the test: Fluorogenic factor VIIa assay (Example 6). Particulars: HBS, 37° C., 50 nM rVIIa. The method, then:
as §1, §2

The target in test [5] is T4, VIIa/TF/PCPS/Ca^2+ (Homo sapiens, UniProt P08709).
T4 construct: directly measure the enzymatic activity of factor VIIa in the presence and absence of tissue factor and phospholipid
T4 sequence (P13726 33-295 partner, one chain of several): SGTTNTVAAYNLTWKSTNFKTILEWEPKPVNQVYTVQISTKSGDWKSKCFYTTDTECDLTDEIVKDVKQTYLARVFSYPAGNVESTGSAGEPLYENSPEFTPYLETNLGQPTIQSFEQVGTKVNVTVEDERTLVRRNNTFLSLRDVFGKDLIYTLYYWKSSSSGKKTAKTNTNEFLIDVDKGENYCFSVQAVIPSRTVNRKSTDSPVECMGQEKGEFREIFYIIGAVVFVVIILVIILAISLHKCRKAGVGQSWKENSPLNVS
Nature of the test: Fluorogenic factor VIIa assay (Example 6). To be noted: HBS, 37° C., 0.5 nM rVIIa. How it is done:
as §1, §2

Test [6] addresses T5, VIIa/Ca^2+ (Homo sapiens, UniProt P08709).
T5 construct: directly measure the enzymatic activity of factor VIIa in the presence and absence of tissue factor and phospholipid
T5 sequence (P08709 213-466 limits assumed): T1 sequence (P08709 213-466 limits assumed)
T5 sequence (P08709 61-212 limits assumed): T1 sequence (P08709 61-212 limits assumed)
Nature of the test: Fluorogenic factor VIIa assay (Example 6). To be noted: HBS, 37° C., 50 nM rVIIa. The method, then:
as §1, §2

T2 sequence (P13726 33-295 partner, one chain of several): as above
activated protein C (APC), sequence (P04070 212-461 limits assumed): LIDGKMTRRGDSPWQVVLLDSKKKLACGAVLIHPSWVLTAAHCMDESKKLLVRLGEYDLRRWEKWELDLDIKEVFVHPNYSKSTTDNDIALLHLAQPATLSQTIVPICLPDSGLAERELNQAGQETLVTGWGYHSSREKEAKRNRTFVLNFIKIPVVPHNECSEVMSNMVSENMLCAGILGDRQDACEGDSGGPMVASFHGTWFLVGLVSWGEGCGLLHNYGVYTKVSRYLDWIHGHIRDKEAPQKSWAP
activated protein C (APC), sequence (P04070 43-197 limits assumed): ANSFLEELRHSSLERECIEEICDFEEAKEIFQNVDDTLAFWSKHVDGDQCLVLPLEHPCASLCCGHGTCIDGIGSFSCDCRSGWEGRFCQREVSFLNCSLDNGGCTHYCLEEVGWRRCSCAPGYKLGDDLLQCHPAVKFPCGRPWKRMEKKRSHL

`CCN(CC)S(=O)(=O)c1cccc2cc(NC(=O)[C@H](CCCNC(=N)N)NC(=O)CNC(=O)[C@@H](CC(C)C)NS(C)(=O)=O)ccc12` [MesD-LPR-ANSN(C2 H5)2, 6-(Mes-D-Leu-Gly-Arg)amino-1-(N,N-diethyl)napththalenesulfonamide]: the “TIME TO 10% HYDROLYSIS (HOURS), VIIa” value in test [1] was determined as 4 h. For the same molecule, the “TIME TO 10% HYDROLYSIS (HOURS), APC” value in test [2] (100 nM enzyme (footnote b), substrate 1 μM) is 0.5 h. Besides, the “Kinetic constants, APC (symbol b)” value in test [2] (Table 9) is reported as “b”. The “kcat /Km” value in test [3] is 4206 M^-1 S^-1; in test [4], 32.6 M^-1 S^-1; in test [5], 4166 M^-1 S^-1; in test [6], 41.4 M^-1 S^-1. The “kcat sec^-1 ± S.E.” value is 0.875 ± 0.032 s⁻¹ in test [3], 0.019 ± 0.003 s⁻¹ in test [4], 0.675 ± 0.046 s⁻¹ in test [5] and 0.010 ± 0.002 s⁻¹ in test [6]. Besides, the Km in test [3] (read-out: Km μM ± S.E.) was determined as 208 ± 12 µM; in test [4] (read-out: Km μM ± S.E.), 580 ± 101 µM; in test [5] (read-out: Km μM ± S.E.), 162 ± 16 µM; in test [6] (read-out: Km μM ± S.E.) it was 249 ± 88.5 µM.
